Source: patent US20230398130A1, “METHODS AND COMPOSITIONS FOR DIFFERENTIATING STEM CELLS” (Massachusetts Institute of Technology, priority 2020, published 2023)

Experiments:
[1] = system: ISC-enriched organoids; experiment: Primary screen, 384-well 2.5-D organoid differentiation (ENR+CD, 6 days): basal lysozyme secretion (LYZ.NS); format: cell-based, murine; conditions: for Dose.FC.LYZ.NS (log 2 fold change, basal lysozyme secretion): vs plate median; for Dose.FC.LYZ.NS: FC vs plate median; for SSMD.LYZ.NS: strictly standardized mean difference
Source text: (§1) High-throughput screening.

[2] = system: ISC-enriched organoids; experiment: Primary screen, 384-well 2.5-D organoid differentiation (ENR+CD, 6 days): carbachol-induced lysozyme secretion (LYZ.S); format: cell-based, murine; conditions: for Dose.FC.LYZ.S (log 2 fold change, carbachol-induced lysozyme secretion): vs plate median; for Dose.FC.LYZ.S: FC vs plate median; for Z.LYZ.S: standard z score; for SSMD.LYZ.S: strictly standardized mean difference
Source text: as §1

[3] = system: ISC-enriched organoids; experiment: Primary screen, 384-well 2.5-D organoid differentiation (ENR+CD, 6 days, Target Selective Inhibitor Library, vs whole-plate median): ATP (CellTiter-Glo 3D, CTG); conditions: for Dose.FC.CTG (log 2 fold change, ATP): vs plate median; for Dose.FC.CTG: FC vs plate median; for SSMD.CTG: strictly standardized mean difference
[4] = Dose 0.08 uM, standard z score of FC
[5] = Dose 0.40 uM, standard z score of FC
[6] = Dose 2.00 uM, standard z score of FC
[7] = Dose 10.00 uM, standard z score of FC
[8] = Dose 0.08 uM, primary screen, standard z score
[9] = Dose 0.40 uM, primary screen, standard z score
[10] = Dose 2.00 uM, primary screen, standard z score
[11] = Dose 10.00 uM, primary screen, standard z score
[12] = primary screen, 1st of the 4 dose lines of the treatment (dose not given)
[13] = primary screen, 2nd of the 4 dose lines of the treatment (dose not given)
[14] = primary screen, 3rd of the 4 dose lines of the treatment (dose not given)
[15] = primary screen, 4th of the 4 dose lines of the treatment (dose not given)

Cc1ccc(NC(=O)C2(c3ccc4c(c3)OC(F)(F)O4)CC2)nc1-c1cccc(C(=O)O)c1 [VX-809 (Lumacaftor)]
Z.LYZ.NS (standard z score) ([1]; dose 0.08 uM): 0.634 | Dose.FC.LYZ.NS (log 2 fold change, basal lysozyme secretion) ([1]; dose 0.08 uM): 0.073 | Z.LYZ.NS (standard z score) ([1]; dose 0.40 uM): −0.353 | Dose.FC.LYZ.NS (log 2 fold change, basal lysozyme secretion) ([1]; dose 0.40 uM): −0.041 | Z.LYZ.NS (standard z score) ([1]; dose 2.00 uM): −0.279 | Dose.FC.LYZ.NS (log 2 fold change, basal lysozyme secretion) ([1]; dose 2.00 uM): −0.032 | Z.LYZ.NS (standard z score) ([1]; dose 10.00 uM): −0.713 | Dose.FC.LYZ.NS (log 2 fold change, basal lysozyme secretion) ([1]; dose 10.00 uM): −0.082 | Dose.FC.LYZ.S (log 2 fold change, carbachol-induced lysozyme secretion) ([2]; dose 0.08 uM): 0.218 | Dose.FC.LYZ.S (log 2 fold change, carbachol-induced lysozyme secretion) ([2]; dose 0.40 uM): −0.027 | Dose.FC.LYZ.S (log 2 fold change, carbachol-induced lysozyme secretion) ([2]; dose 2.00 uM): −0.073 | Dose.FC.LYZ.S (log 2 fold change, carbachol-induced lysozyme secretion) ([2]; dose 10.00 uM): −0.117 | Z.CTG (standard z score) ([3]; dose 0.08 uM): 0.423 | Dose.FC.CTG (log 2 fold change, ATP) ([3]; dose 0.08 uM): 0.177 | Z.CTG (standard z score) ([3]; dose 0.40 uM): −0.149 | Dose.FC.CTG (log 2 fold change, ATP) ([3]; dose 0.40 uM): −0.062 | Z.CTG (standard z score) ([3]; dose 2.00 uM): −0.346 | Dose.FC.CTG (log 2 fold change, ATP) ([3]; dose 2.00 uM): −0.145 | Z.CTG (standard z score) ([3]; dose 10.00 uM): 0.076 | Dose.FC.CTG (log 2 fold change, ATP) ([3]; dose 10.00 uM): 0.032

COc1cccc(C=NCCN=Cc2cccc(OC)c2[O-])c1[O-].[Cl-].[Mn+3] [EUK 134]
Dose.FC.LYZ.NS ([1]; Dose 0.08 uM, ENR+CD, 6 days): 0.068 log 2 fold change | Z.LYZ.NS [1, 4]: 0.594 | Dose.FC.LYZ.NS ([1]; Dose 0.40 uM, ENR+CD, 6 days): 0.003 log 2 fold change | Z.LYZ.NS [1, 5]: 0.026 | Dose.FC.LYZ.NS ([1]; Dose 2.00 uM, ENR+CD, 6 days): 0.028 log 2 fold change | Z.LYZ.NS [1, 6]: 0.247 | Dose.FC.LYZ.NS ([1]; Dose 10.00 uM, ENR+CD, 6 days): −0.085 log 2 fold change | Z.LYZ.NS [1, 7]: −0.741 | Dose.FC.LYZ.S ([2]; Dose 0.08 uM, ENR+CD, 6 days): 0.025 log 2 fold change | Dose.FC.LYZ.S ([2]; Dose 0.40 uM, ENR+CD, 6 days): 0.057 log 2 fold change | Dose.FC.LYZ.S ([2]; Dose 2.00 uM, ENR+CD, 6 days): −0.034 log 2 fold change | Dose.FC.LYZ.S ([2]; Dose 10.00 uM, ENR+CD, 6 days): −0.132 log 2 fold change | Dose.FC.CTG ([3]; Dose 0.08 uM, ENR+CD, 6 days): −0.015 log 2 fold change | Z.CTG [3, 4]: −0.035 | Dose.FC.CTG ([3]; Dose 0.40 uM, ENR+CD, 6 days): −0.162 log 2 fold change | Z.CTG [3, 5]: −0.387 | Dose.FC.CTG ([3]; Dose 2.00 uM, ENR+CD, 6 days): 0.091 log 2 fold change | Z.CTG [3, 6]: 0.217 | Dose.FC.CTG ([3]; Dose 10.00 uM, ENR+CD, 6 days): −0.024 log 2 fold change | Z.CTG [3, 7]: −0.057

CCOC(=O)CCNc1cc(N2CCc3ccccc3CC2)nc(-c2ccccn2)n1.Cl [GSK J4 HCl]
Dose.FC.LYZ.NS ([1]; Dose 0.08 uM, primary screen): 0.058 log 2 fold change | Z.LYZ.NS [1, 8]: 0.508 | Dose.FC.LYZ.NS ([1]; Dose 0.40 uM, primary screen): 0.050 log 2 fold change | Z.LYZ.NS [1, 9]: 0.433 | Dose.FC.LYZ.NS ([1]; Dose 2.00 uM, primary screen): 0.018 log 2 fold change | Z.LYZ.NS [1, 10]: 0.153 | Dose.FC.LYZ.NS ([1]; Dose 10.00 uM, primary screen): −0.001 log 2 fold change | Z.LYZ.NS [1, 11]: −0.006 | Dose.FC.LYZ.S ([2]; Dose 0.08 uM, primary screen): 0.086 log 2 fold change | Dose.FC.LYZ.S ([2]; Dose 0.40 uM, primary screen): 0.109 log 2 fold change | Dose.FC.LYZ.S ([2]; Dose 2.00 uM, primary screen): 0.041 log 2 fold change | Dose.FC.LYZ.S ([2]; Dose 10.00 uM, primary screen): −0.002 log 2 fold change | Dose.FC.CTG ([3]; Dose 0.08 uM, primary screen): 0.124 log 2 fold change | Z.CTG [3, 8]: 0.297 | Dose.FC.CTG ([3]; Dose 0.40 uM, primary screen): 0.099 log 2 fold change | Z.CTG [3, 9]: 0.237 | Dose.FC.CTG ([3]; Dose 2.00 uM, primary screen): 0.002 log 2 fold change | Z.CTG [3, 10]: 0.006 | Dose.FC.CTG ([3]; Dose 10.00 uM, primary screen): 0.233 log 2 fold change | Z.CTG [3, 11]: 0.558

CC(C)c1ccc(NC(=O)Cn2cnc3c2c(=O)n(C)c(=O)n3C)cc1 [HC-030031]
Dose.FC.LYZ.NS ([1]; Dose 0.08 uM, primary screen): 0.063 log 2 fold change | Z.LYZ.NS [1, 8]: 0.547 | Dose.FC.LYZ.NS ([1]; Dose 0.40 uM, primary screen): 0.033 log 2 fold change | Z.LYZ.NS [1, 9]: 0.291 | Dose.FC.LYZ.NS ([1]; Dose 2.00 uM, primary screen): −0.007 log 2 fold change | Z.LYZ.NS [1, 10]: −0.057 | Dose.FC.LYZ.NS ([1]; Dose 10.00 uM, primary screen): −0.047 log 2 fold change | Z.LYZ.NS [1, 11]: −0.411 | SSMD.LYZ.NS [1, 12]: 0.506 | SSMD.LYZ.NS [1, 13]: 0.276 | SSMD.LYZ.NS [1, 14]: −0.048 | SSMD.LYZ.NS [1, 15]: −0.383 | Dose.FC.LYZ.S ([2]; Dose 0.08 uM, primary screen): 0.090 log 2 fold change | Dose.FC.LYZ.S ([2]; Dose 0.40 uM, primary screen): 0.097 log 2 fold change | Dose.FC.LYZ.S ([2]; Dose 2.00 uM, primary screen): −0.035 log 2 fold change | Dose.FC.LYZ.S ([2]; Dose 10.00 uM, primary screen): 0.077 log 2 fold change | Z.LYZ.S [2, 12]: 0.584 | Z.LYZ.S [2, 13]: 0.627 | Z.LYZ.S [2, 14]: −0.225 | Z.LYZ.S [2, 15]: 0.499 | SSMD.LYZ.S [2, 12]: 0.499 | SSMD.LYZ.S [2, 13]: 0.539 | SSMD.LYZ.S [2, 14]: −0.200 | SSMD.LYZ.S [2, 15]: 0.322 | Dose.FC.CTG ([3]; Dose 0.08 uM, primary screen): 0.082 log 2 fold change | Z.CTG [3, 8]: 0.195 | Dose.FC.CTG ([3]; Dose 0.40 uM, primary screen): 0.191 log 2 fold change | Z.CTG [3, 9]: 0.457 | Dose.FC.CTG ([3]; Dose 2.00 uM, primary screen): −0.008 log 2 fold change | Z.CTG [3, 10]: −0.019 | Dose.FC.CTG ([3]; Dose 10.00 uM, primary screen): −0.241 log 2 fold change | Z.CTG [3, 11]: −0.575 | SSMD.CTG [3, 12]: 0.200 | SSMD.CTG [3, 13]: 0.606 | SSMD.CTG [3, 14]: −0.025 | SSMD.CTG [3, 15]: −0.715
